From ChEMBL document CHEMBL1135189, “Discovery of non-zwitterionic GABA(A) receptor full agonists and a superagonist” (Bioorg Med Chem Lett, 2002)
pEC50: −log10 of the molar value.

How the values were obtained:
Type in all cases: functional
[1] = molecular target: T1, GABA-A receptor; anion channel (Mus musculus) (UniProt Q8BHJ7+P26048+Q8QZW7+P50571+Q9R0Y8+P22723+A2AMW3+P62812+Q9JLF1+P26049+P22933+Q9D6F4+P63080+P27681+P16305); test: Agonistic activity against GABA-A receptor chloride uptake, super-agonist
[2] = molecular target: GABA-A receptor; anion channel; test: Activation of chloride ion uptake into mouse brain synaptoneurosomes
[3] = molecular target: GABA-A receptor; anion channel; test: Activation of chloride ion uptake into mouse brain synaptoneurosomes, no net uptake at […]
[4] = molecular target: T1, GABA-A receptor; anion channel (Mus musculus); test: Agonistic activity against GABA-A receptor chloride uptake, partial agonist
[5] = molecular target: T1, GABA-A receptor; anion channel (Mus musculus); test: Agonistic activity against GABA-A receptor chloride uptake, full agonist

SMILES	pEC50 [2]	Emax [4]	Emax [5]	other results
NCCCC(=O)NCCNCC(=O)O				pEC50 [3]: < 2.40
CCCCNC(=O)CCCN	3.47	362		
Oc1noc2c1CCNC2 [GABOXADOL]	3.47			
NCCCC(N)=O	3.50	307		
NCCCC(=O)NCCN				pEC50 [3]: < 2.40

More lines, in order of rising pEC50 [2], values ahead:

pEC50 [2]	Emax [4]	Emax [5]	SMILES	other results
2.94		497	NCCCCNC(=O)CCCN	
3.13	264		NCCCC(=O)NCCNC(=O)CCCN	
3.19		433	NCCCC(=O)NCCCCCCNC(=O)CCCN	
3.32			NCCCC(=O)NCCCCNC(=O)CCCN	Emax [1]: 578
3.38		549	CC(=O)NCCCCNC(=O)CCCN	
